How the values were obtained:
[1] = in vivo; details: RF ablated liver; for concentration at 24 h: male, Sprague Dawley, rat, in vivo, 5-FU concentration in liver tissue
Text: The medial lobe of each liver was exposed through a small midline incision.
For the ablation procedure, the livers were placed on a wire mesh grounding pad and a saline soaked sponge. Ablation was accomplished using a 200-W radiofrequency generator (model CTRF-A, Radionics, Burlington, Mass.) using a 19-gauge needle electrode (model PE-D(10)(2) Radionics , Burlington, Mass.). Ablation was initiated by inserting the needle electrode into a needle tract made with a 23-gauge needle in the center of the lobe. The electrode was inserted to a depth of approximately 8-mm. The hepatic tissue exposed to the radiofrequency current was raised to a temperature of 90° C. for 3 min. […] After the electrode was removed, a 5-FU rod was placed in the probe tract and a fat pad was sewn over the top.

[2] = In-vitro release of 5-FU from poly(CPP:SA) implants; type: physicochemical; details: 37° C., 120 rpm
Method: The drug 5-fluorouracil was analyzed by HPLC using a Regis C-18 reverse phase column. The mobile phase was deionized water at a flow rate of 0.6 ml/min and the injection volume was10 μl. The detector was set to monitor 266 nm. Calibration standards for the method were prepared as follows: A mass of 13 mg of 5-FU was dissolved in deionized water in a 50 ml volumetric flask to make a 2.00 mM stock solution. Sequential dilutions of the stock solution give standard solutions of 1.00, 0.200, 0.0500, 0.0100 and 0.00100 mM, respectively. The standards for the metabolite 5-FUR were similarly prepared at the concentrations of 2.00, 1.00, 0.200, 0.0500, 0.0100 and 0.00100 mM, respectively. The HPLC peak area of 5-FU and 5-FUR varied linearly with concentrations in the standard test range of 0.001-2 mM.
To measure in-vitro drug release of 5-F U from the implants, solid samples were pre-weighed and placed in a sterile 50-ml conical tubes filled with 20 ml of either phosphate buffered saline (PBS) or fetal bovine serum (FBS). The tubes were placed on the Gyromax 929 shaker adjusted to 37° C. and 120 rpm. Periodically, 0.1 ml of the solutions was transferred into a vial and diluted 20 times with deionized water. Aliquots of 0.1 ml of fresh PBS or FBS was added to the conical tubes each time to maintain a constant volume. […]

[3] = test system: VX-2 tumor; experiment: 5-FU rods plus radio-frequency ablation in VX-2 tumors in the liver of rabbits, tumor volume; type: in vivo, New Zealand white rabbits
Method: (§1) Male New Zealand white rabbits (−3 kg) were used and were cared for in accordance with the Case Western Reserve University animal research center regulations. The rabbits were anesthetized using a combination of xylazine (5 mg/kg body weight BW) and ketamine (50 mg/kg BW), acepromazine (2 mg/kg), and atropine (0.2 mg/kg) given by i.m. injection. The abdomen was shaved and cleaned with povidone-iodine solution (Betadine) and 0.5 ml of Marcaine was administered into the skin at the incision site. A small midline incision was made and the medial lobe of the liver was exposed and exteriorized. The capsule of the medial lobe was punctured with a scalpel blade and a small piece of VX-2 tumor (1 mm^3), which was propagated in another rabbit and stored in liquid nitrogen for later use, was inserted into the liver parenchyma. A small piece of fat was sutured over the implant site. The abdominal muscles were closed with suture and the skin was closed with subcutaneous hidden sutures. During the recovery period, all animals received buprenophrine (Buprenex, 0.5 mg/kg, i.m.), soon after surgery and once again 24 hrs later for pain. If the animals were later perceived to be in pain, additional buprenophrine was given as needed. The rabbits also received a subcutaneous injection of 25 ml of 0.9% saline during recovery and 24 hrs later.
Fourteen days after tumor implantation, the rabbits were anesthetized again using the protocol given above. The medial lobe of the liver was exteriorized and examined for tumor growth. The size of the tumor was approximately 0.5-1.0 cm in diameter and extended into the liver parenchyma. Before radio frequency ablation, a grounding pad was placed under the exteriorized medial lobe of the liver. […]
Tumor volumes after 28 days of growth, calculated from the digital photographs as well as the integration of the CT slices though the tumors of each rabbit, are given in the table below: […]

[4] = Body weight change after RFA plus 5-FU rods in VX-2 tumor rabbits; type: in vivo, New Zealand white rabbits; details: RFA plus 5-FU subgroup, last 14 days following RFA
Method: as §1, with “later. […]” for “later.”

[5] = test system: neoplastic tissue; details: reported; cited from earlier work
[6] = Local drug concentration distribution in normal (unablated) rat liver after implantation of 5-FU rod; details: 24 h, insertion point vs periphery
[7] = ablation + three 5-FU rods at day 14, after 28 days of growth, N = 4

Row | SMILES | spatial distribution in ablated liver ([1]; 5-FU rod in probe tract, 24 h and 48 h) | time to release 75% of the 5-FU from implant ([2]; FBS) | time to release 75% of the 5-FU from implant ([2]; PBS) | concentration at 24 h ([1]; between 6 and 18 mm away from the ablation center) | concentration at 24 h ([1]; within 24 h, immediate vicinity of the ablation site (~6 mm radius)) | reduction in tumor size ([3]; ablation + local sustained release 5-FU vs ablation only) | Tumor Volumes, mean (1 SD), CT Scan [3, 7] | Tumor Volumes, mean (1 SD), Digital Photography [3, 7] | increase in body weight [4] | level in neoplastic tissue sufficient for a clinical effect [5] | spatial distribution in normal (unablated) liver [6]
1 | O=c1[nH]c(=O)n([C@H]2C[C@H](O)[C@@H](CO)O2)cc1F [5-FUR, 5-floxuridine] | contains less 5-FUR than that further away from the ablation site |  |  |  |  |  |  |  |  |  | 
2 | O=c1[nH]cc(F)c(=O)[nH]1 [5-FU, 5-fluorouracil] |  | 2 days | 9 days | ~12000 ng/g | ≤ 41000 ng/g | ~50% | 1.71 (0.56) cm^3 | 1.24 (0.55) cm^3 | 2% | 0.05 µg/g | essentially the same throughout the whole liver
